Data as given in PubChem BioAssay AID248 (DTP/NCI, 2004).
“And” between values parts separate entries of the source, which are not always exact repeats. Equal values may be shown once. Toxic doses and inconclusive results are not listed. No stated cut-off is given here; in the data, active means T/C of 150% or more; inactive means T/C below 125%.

Test system: L1210 leukemia ip in BDF1 mice, survival T/C
Experiment: NCI In Vivo Anticancer Drug Screen. Data for tumor model L1210 Leukemia (intraperitoneal) in B6D2F1 (BDF1) mice
Conditions: endpoint: mean survival time, higher = longer survival
Procedure, shortened: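 Each compound was tested against a transplantable tumor grown in mice. The endpoint was survival, with treated animals benchmarked against vehicle controls as a simple ratio.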

[1] = dose: 100.0 mg/kg/injection, schedule: Q04DX002 (ip), vehicle: saline with Tween-80
[2] = dose: 200.0 mg/kg/injection, schedule: Q04DX002 (ip), vehicle: saline with Tween-80
[3] = dose: 400.0 mg/kg/injection, schedule: Q04DX002 (ip), vehicle: saline with Tween-80
[4] = dose: 100.0 mg/kg/injection, schedule: Q01DX001 (ip), vehicle: saline
[5] = dose: 200.0 mg/kg/injection, schedule: Q01DX001 (ip), vehicle: saline
[6] = dose: 400.0 mg/kg/injection, schedule: Q01DX001 (ip), vehicle: saline
[7] = dose: 100.0 mg/kg/injection, schedule: Q04DX003 (ip), vehicle: saline with Tween-80
[8] = dose: 200.0 mg/kg/injection, schedule: Q04DX003 (ip), vehicle: saline with Tween-80
[9] = dose: 100.0 mg/kg/injection, schedule: Q04DX003 (ip), vehicle: Klucel (hydroxypropylcellulose) (HPC)
[10] = dose: 200.0 mg/kg/injection, schedule: Q04DX003 (ip), vehicle: Klucel (hydroxypropylcellulose) (HPC)
[11] = dose: 400.0 mg/kg/injection, schedule: Q04DX003 (ip), vehicle: Klucel (hydroxypropylcellulose) (HPC)
[12] = dose: 100.0 mg/kg/injection, schedule: Q04DX003 (ip), vehicle: saline
[13] = dose: 200.0 mg/kg/injection, schedule: Q04DX003 (ip), vehicle: saline
[14] = dose: 400.0 mg/kg/injection, schedule: Q04DX003 (ip), vehicle: saline
[15] = dose: 100.0 mg/kg/injection, schedule: Q01DX009 (ip), vehicle: Klucel (hydroxypropylcellulose) (HPC)
[16] = dose: 200.0 mg/kg/injection, schedule: Q01DX009 (ip), vehicle: Klucel (hydroxypropylcellulose) (HPC)
[17] = dose: 100.0 mg/kg/injection, schedule: Q01DX001 (ip), vehicle: carboxymethylcellulose (CMC)
[18] = dose: 200.0 mg/kg/injection, schedule: Q01DX001 (ip), vehicle: carboxymethylcellulose (CMC)
[19] = dose: 400.0 mg/kg/injection, schedule: Q01DX001 (ip), vehicle: carboxymethylcellulose (CMC)

Measured: T/C

O=CNC(Cc1ccc(OCc2ccccc2)cc1)C(=O)O (configuration not stated)
inactive: dose: 50.0 mg/kg/injection, schedule: Q01DX009 (ip), vehicle: saline with Tween-80 98 % of control | dose: 100.0 mg/kg/injection, schedule: Q01DX001 (ip), vehicle: saline with Tween-80 89 % of control | dose: 100.0 mg/kg/injection, schedule: Q01DX009 (ip), vehicle: saline with Tween-80 96 % of control | dose: 200.0 mg/kg/injection, schedule: Q01DX001 (ip), vehicle: saline with Tween-80 95 % of control | dose: 200.0 mg/kg/injection, schedule: Q01DX009 (ip), vehicle: saline with Tween-80 98 % of control | dose: 400.0 mg/kg/injection, schedule: Q01DX001 (ip), vehicle: saline with Tween-80 88 % of control

O=C1c2ccccc2C(=O)N1CNc1ccccc1/C(=N/Nc1ccc([N+](=O)[O-])cc1[N+](=O)[O-])c1ccccc1
inactive: [1] 91 % of control | [2] 91 % of control | [3] 94 % of control

O=C(Nc1cc2ccccc2nc1-c1ccccc1)c1ccccc1
inactive: [4] 92 % of control

Cc1cc(S(=O)(=O)Cl)c(Cl)cc1Cl
inactive: [4] 96 % of control | [5] 103 % of control | [6] 96 % of control

NC(=S)N/N=C/c1ccc2c(c1)OCO2
inactive: [7] 95 % of control | [8] 103 % of control

Cn1cc(C(=O)O)c(=O)c2ccc(/C=C/c3ccc([N+](=O)[O-])o3)nc21
inactive: [4] 92 % of control | [5] 101 % of control | [6] 103 % of control

O=C(COc1ccc(Cl)cc1)OCCCl
inactive: dose: 87.5 mg/kg/injection, schedule: Q01DX009 (ip), vehicle: other 104 % of control | [9] 95 % of control | dose: 175.0 mg/kg/injection, schedule: Q01DX009 (ip), vehicle: other 98 % of control | [10] 97 % of control | dose: 350.0 mg/kg/injection, schedule: Q01DX009 (ip), vehicle: other 104 % of control | [11] 91 % of control

CC(=O)Nc1ccc(/C=N\NC(=O)c2ccco2)cc1
inactive: dose: 100.0 mg/kg/injection, schedule: Q01DX001 (ip), vehicle: other 87 % of control | dose: 200.0 mg/kg/injection, schedule: Q01DX001 (ip), vehicle: other 90 % of control | dose: 400.0 mg/kg/injection, schedule: Q01DX001 (ip), vehicle: other 87 % of control

CC(=O)NC1CCC(/C=C(\C#N)C2CCC([N+](=O)[O-])CC2)CC1 (configuration not stated)
inactive: dose: 25.0 mg/kg/injection, schedule: Q04DX002 (ip), vehicle: saline with Tween-80 97 % of control | dose: 50.0 mg/kg/injection, schedule: Q04DX002 (ip), vehicle: saline with Tween-80 94 % of control | [1] 94 % of control | [2] 86 % of control | [3] 104 % of control

CCC(=O)Nc1cccc(OC(=O)NC2CCCCC2)c1
inactive: [7] 102 % of control | [8] 98 % of control | dose: 400.0 mg/kg/injection, schedule: Q04DX003 (ip), vehicle: saline with Tween-80 91 % of control

CCOC(=O)c1ccc([N+](=O)[O-])s1
inactive: [12] 100 % of control | [13] 97 % of control | [14] 111 % of control

CCOC(=O)C1=C(C(=O)OCC)C2(c3ccccc3)NC1(c1ccccc1)c1ccccc12
inactive: [4] 101 % of control | [5] 97 % of control | [6] 97 % of control

O=C(O)CCC(=O)c1ccc2ccc3cccc4ccc1c2c34
inactive: [4] 98 % of control | [5] 102 % of control | [6] 103 % of control

O=C1C(=O)c2ccccc2C=C1[N+](=O)[O-]
inactive: dose: 5.0 mg/kg/injection, schedule: Q01DX009 (ip), vehicle: saline 92 % of control | dose: 5.0 mg/kg/injection, schedule: Q04DX003 (ip), vehicle: saline 108 % of control | dose: 10.0 mg/kg/injection, schedule: Q01DX009 (ip), vehicle: saline 101 % of control | dose: 10.0 mg/kg/injection, schedule: Q04DX003 (ip), vehicle: saline 96 % of control | dose: 20.0 mg/kg/injection, schedule: Q01DX009 (ip), vehicle: saline 99 % of control | dose: 20.0 mg/kg/injection, schedule: Q04DX003 (ip), vehicle: saline 93 % of control

Cc1c2cnccc2c(C)c2c1c1ccccc1n2CCCl
inactive: dose: 31.25 mg/kg/injection, schedule: Q01DX009 (ip), vehicle: saline with Tween-80 106 % of control | dose: 37.5 mg/kg/injection, schedule: Q04DX003 (ip), vehicle: saline 93 % of control | dose: 62.5 mg/kg/injection, schedule: Q01DX009 (ip), vehicle: saline with Tween-80 109 % of control | dose: 75.0 mg/kg/injection, schedule: Q04DX003 (ip), vehicle: saline 97 % of control | dose: 150.0 mg/kg/injection, schedule: Q04DX003 (ip), vehicle: saline 98 % of control | dose: 300.0 mg/kg/injection, schedule: Q04DX003 (ip), vehicle: saline 100 % of control

COC(=O)c1ccccc1NC(=O)Nc1ccccc1
inactive: [15] 108 % of control | [9] 101 % of control | [16] 101 % of control | [10] 101 % of control | dose: 400.0 mg/kg/injection, schedule: Q01DX009 (ip), vehicle: Klucel (hydroxypropylcellulose) (HPC) 100 % of control | [11] 98 % of control

O=C(O)CC1CC=CCC1CC(=O)O (configuration not stated)
inactive: dose: 100.0 mg/kg/injection, schedule: Q01DX009 (ip), vehicle: saline sonified 95 % of control | dose: 200.0 mg/kg/injection, schedule: Q01DX009 (ip), vehicle: saline sonified 101 % of control | dose: 400.0 mg/kg/injection, schedule: Q01DX009 (ip), vehicle: saline sonified 104 % of control

Cc1ccc(Br)c([N+](=O)[O-])c1
inactive: dose: 22.2 mg/kg/injection, schedule: Q01DX001 (ip), vehicle: carboxymethylcellulose (CMC) 93 % of control | dose: 33.35 mg/kg/injection, schedule: Q01DX001 (ip), vehicle: carboxymethylcellulose (CMC) 93 % of control | dose: 50.0 mg/kg/injection, schedule: Q01DX001 (ip), vehicle: carboxymethylcellulose (CMC) 93 % of control | dose: 75.0 mg/kg/injection, schedule: Q01DX001 (ip), vehicle: carboxymethylcellulose (CMC) 110 % of control | [17] 109 % of control | [18] 115 % of control | [19] 107 % of control

O=P(CCCCl)(OCCCCl)OCCCCl
inactive: [12] 104 % of control | [13] 114 % of control | [14] 96 % of control

Cc1nccnc1N
inactive: dose: 25.0 mg/kg/injection, schedule: Q01DX009 (ip), vehicle: saline 112 % of control | dose: 50.0 mg/kg/injection, schedule: Q01DX009 (ip), vehicle: saline 110 % of control | dose: 100.0 mg/kg/injection, schedule: Q01DX009 (ip), vehicle: saline 95 % of control and 108 % of control | [12] 98 % of control | [13] 109 % of control | [14] 102 % of control

CCN(CC)C(=S)c1ccc(C(=S)N(CC)CC)cc1
inactive: [9] 91 % of control | [10] 93 % of control | [11] 93 % of control

CCOC(=O)c1ccc[n+](CCCl)c1
inactive: dose: 10.0 mg/kg/injection, schedule: Q01DX Z (ip), vehicle: saline 98 % of control | dose: 30.0 mg/kg/injection, schedule: Q01DX Z (ip), vehicle: saline 97 % of control | dose: 100.0 mg/kg/injection, schedule: Q01DX Z (ip), vehicle: saline 90 % of control

C=CCOC(=O)C(C)(O)C(Cl)c1ccccc1 (configuration not stated)
inactive: dose: 100.0 mg/kg/injection, schedule: Q04DX002 (ip), vehicle: saline 103 % of control | dose: 200.0 mg/kg/injection, schedule: Q04DX002 (ip), vehicle: saline 100 % of control | dose: 400.0 mg/kg/injection, schedule: Q04DX002 (ip), vehicle: saline 100 % of control

Nc1ncnc(N)c1NC(=O)c1ccc(OCCCOc2ccccc2)c(Cl)c1
inactive: [17] 96 % of control | [18] 101 % of control | [19] 96 % of control

NNc1c(C(N)=O)c2c(N)ncnc2n1C1OC(CO)C(O)C1O (configuration not stated)
inactive: dose: 100.0 mg/kg/injection, schedule: Q01DX005 (ip), vehicle: saline 96 % of control | dose: 200.0 mg/kg/injection, schedule: Q01DX005 (ip), vehicle: saline 100 % of control

Cc1ccc(Cl)cc1NC(=O)C(Br)C(Br)C(=O)O (configuration not stated)
inactive: [15] 91 % of control | [16] 101 % of control
